From ChEMBL document CHEMBL1201862, “PubChem BioAssay data set” (2004)
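1) Cells in 96-well plates. 2) Compound, 48 h, 5 concentrations. 3) Linear interpolation between surrounding doses. 4) Unreached endpoint = highest concentration. The concentration for 50% growth inhibition is given as GI50.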 Active and inactive are the calls of the source. Rule as the data show it: active = GI50 up to about 1.1 µM and inactive = higher.

Legend:
Experiment in all cases: DTP human tumour cell line panel, 48 h
[1] = tested on: UACC-62
[2] = tested on: MCF7
[3] = tested on: NCI-H226
[4] = tested on: SK-MEL-5
[5] = tested on: SN12C
[6] = tested on: HT-29
[7] = tested on: M14
[8] = tested on: UACC-257
[9] = tested on: PC-3
[10] = tested on: SR
[11] = tested on: SF-295
[12] = tested on: BT-549
[13] = tested on: RPMI-8226
[14] = tested on: SW-620
[15] = tested on: K562
[16] = tested on: SK-OV-3
[17] = tested on: NCI-H460
[18] = tested on: ACHN
[19] = tested on: LOX IMVI
[20] = tested on: A498

Structure (SMILES)	GI50 [1]	GI50 [2]	GI50 [3]	GI50 [4]	GI50 [5]	GI50 [6]	GI50 [7]	GI50 [8]	GI50 [9]	GI50 [10]	GI50 [11]	GI50 [12]	GI50 [13]	GI50 [14]	GI50 [15]	GI50 [16]	GI50 [17]	GI50 [18]	GI50 [19]	GI50 [20]
COC(CN(C)C(=O)C(C)NC(=O)c1ccccc1)OC (stereo not drawn)	> 100 µM (inactive)	> 100 µM (inactive)	> 100 µM (inactive)	> 100 µM (inactive)	> 100 µM (inactive)	> 100 µM (inactive)	> 100 µM (inactive)	> 100 µM (inactive)	> 100 µM (inactive)	> 100 µM (inactive)	> 100 µM (inactive)	> 100 µM (inactive)	> 100 µM (inactive)	> 100 µM (inactive)	> 100 µM (inactive)	> 100 µM (inactive)	> 100 µM (inactive)	> 100 µM (inactive)		
CCOc1cc(C2CC(c3ccc(NS(=O)(=O)c4cc([N+](=O)[O-])ccc4C)cc3)=NN2C(=O)c2ccccc2)ccc1O (stereo not drawn)		17.3 µM (inactive)	19.2 µM (inactive)	15.8 µM (inactive)	22.3 µM (inactive)	26.5 µM (inactive)	18.7 µM (inactive)	18.2 µM (inactive)	17.5 µM (inactive)	23.8 µM (inactive)	20.8 µM (inactive)	20.1 µM (inactive)	31.5 µM (inactive)	32.8 µM (inactive)	18.2 µM (inactive)	18.2 µM (inactive)		18.5 µM (inactive)	26.9 µM (inactive)	10.2 µM (inactive)
Sc1nn2c(COc3cccc(OCc4nnc5sc(S)nn45)c3)nnc2s1	> 100 µM (inactive)	76.2 µM (inactive)	> 100 µM (inactive)		> 100 µM (inactive)	62.5 µM (inactive)	> 100 µM (inactive)	> 100 µM (inactive)	> 100 µM (inactive)	17.4 µM (inactive)	> 100 µM (inactive)	> 100 µM (inactive)	73.5 µM (inactive)	37.5 µM (inactive)	7.89 µM (inactive)	> 100 µM (inactive)	31.8 µM (inactive)	> 100 µM (inactive)	34.4 µM (inactive)	> 100 µM (inactive)
C/C(=N\Nc1nc2cc(F)ccc2s1)c1ccccn1	0.123 µM (active)	0.0199 µM (active)	< 0.0242 µM (active)	0.053 µM (active)	0.0101 µM (active)	< 0.01 µM (active)	0.0171 µM (active)	< 0.0182 µM (active)	0.0395 µM (active)	0.0313 µM (active)	0.275 µM (active)	1.19 µM (inactive)	0.136 µM (active)	< 0.01 µM (active)	< 0.0147 µM (active)	0.0953 µM (active)	0.0412 µM (active)	< 0.01 µM (active)		12.1 µM (inactive)
c1ccc([I+]c2ccccc2)cc1		> 100 µM (inactive)	> 100 µM (inactive)	> 100 µM (inactive)	> 100 µM (inactive)	> 100 µM (inactive)	> 100 µM (inactive)	> 100 µM (inactive)	> 100 µM (inactive)	> 100 µM (inactive)	> 100 µM (inactive)	> 100 µM (inactive)	> 100 µM (inactive)	> 100 µM (inactive)	> 100 µM (inactive)	> 100 µM (inactive)	> 100 µM (inactive)	> 100 µM (inactive)	> 100 µM (inactive)	> 100 µM (inactive)
COC1(OC)C(/C(N)=C\O)=NC(C)(C)N1O	> 100 µM (inactive)	74.6 µM (inactive)	> 100 µM (inactive)	71.6 µM (inactive)	> 100 µM (inactive)	> 100 µM (inactive)	> 100 µM (inactive)	> 100 µM (inactive)	> 100 µM (inactive)	> 100 µM (inactive)	> 100 µM (inactive)	> 100 µM (inactive)	> 100 µM (inactive)	> 100 µM (inactive)	> 100 µM (inactive)		> 100 µM (inactive)	> 100 µM (inactive)	> 100 µM (inactive)	> 100 µM (inactive)
COc1ccc(CNNC(=O)c2cc[n+]([BH2-]C#N)cc2)cc1OC	> 100 µM (inactive)	> 100 µM (inactive)	> 100 µM (inactive)	> 100 µM (inactive)	> 100 µM (inactive)		> 100 µM (inactive)	> 100 µM (inactive)	> 100 µM (inactive)	> 100 µM (inactive)	> 100 µM (inactive)	> 100 µM (inactive)	> 100 µM (inactive)	> 100 µM (inactive)	> 100 µM (inactive)		> 100 µM (inactive)	> 100 µM (inactive)	> 100 µM (inactive)	> 100 µM (inactive)
N#Cc1cc2c(n(C3OC(CO)C(O)C(O)C3O)c1=S)CCCCC2 (stereo not drawn)	> 100 µM (inactive)	> 100 µM (inactive)	> 100 µM (inactive)	> 100 µM (inactive)	> 100 µM (inactive)	> 100 µM (inactive)	> 100 µM (inactive)	> 100 µM (inactive)	> 100 µM (inactive)	> 100 µM (inactive)	> 100 µM (inactive)	> 100 µM (inactive)	> 100 µM (inactive)		> 100 µM (inactive)		> 100 µM (inactive)	> 100 µM (inactive)	> 100 µM (inactive)	> 100 µM (inactive)
COc1ccc2c(=O)c3c([nH]c2c1)OCC3=O	> 100 µM (inactive)	> 100 µM (inactive)	> 100 µM (inactive)	> 100 µM (inactive)		> 100 µM (inactive)	> 100 µM (inactive)	> 100 µM (inactive)	> 100 µM (inactive)	> 100 µM (inactive)	> 100 µM (inactive)	> 100 µM (inactive)	> 100 µM (inactive)	> 100 µM (inactive)	36.5 µM (inactive)	> 100 µM (inactive)	> 100 µM (inactive)	> 100 µM (inactive)	> 100 µM (inactive)	> 100 µM (inactive)
Cc1cc(/N=N/c2ccccc2C)ccc1N	12.5 µM (inactive)	4.06 µM (inactive)	13.9 µM (inactive)	15.8 µM (inactive)	12.4 µM (inactive)	17.3 µM (inactive)	12.4 µM (inactive)	17.9 µM (inactive)	11.1 µM (inactive)	12.7 µM (inactive)	11.5 µM (inactive)	10.6 µM (inactive)		19.6 µM (inactive)	11.4 µM (inactive)	24.8 µM (inactive)	3.19 µM (inactive)	5.52 µM (inactive)	11.4 µM (inactive)	24.3 µM (inactive)
CCC/C(=N\NC(=S)N1CCN(c2ccccn2)CC1)c1ccccn1	0.0036 µM (active)	0.00457 µM (active)	1.06 µM (active)	0.0108 µM (active)		0.00137 µM (active)		0.00387 µM (active)	0.0152 µM (active)	0.00191 µM (active)	0.00979 µM (active)	0.0212 µM (active)	0.00115 µM (active)		0.00117 µM (active)	0.437 µM (active)	0.0362 µM (active)	0.0207 µM (active)	0.0258 µM (active)	0.541 µM (active)
CC(/C=N/N(C)C1=NCCCCN1)=N/N(C)C1=NCCCCN1	> 100 µM (inactive)	> 100 µM (inactive)	> 100 µM (inactive)	> 100 µM (inactive)	> 100 µM (inactive)	> 100 µM (inactive)		> 100 µM (inactive)	> 100 µM (inactive)	> 100 µM (inactive)	> 100 µM (inactive)	> 100 µM (inactive)	> 100 µM (inactive)	> 100 µM (inactive)	> 100 µM (inactive)	> 100 µM (inactive)	> 100 µM (inactive)	> 100 µM (inactive)	> 100 µM (inactive)	97.9 µM (inactive)
COc1cccc(N2C(=O)/C(=C\c3ccccc3)SC2c2cc(OC)c(OC)c(OC)c2)c1 (stereo not drawn)	24.1 µM (inactive)	42.4 µM (inactive)	> 100 µM (inactive)	42.9 µM (inactive)	52 µM (inactive)	45.2 µM (inactive)	40.3 µM (inactive)	> 100 µM (inactive)	46.5 µM (inactive)	26.3 µM (inactive)	35.5 µM (inactive)	47.9 µM (inactive)	32.1 µM (inactive)		26.9 µM (inactive)	35.6 µM (inactive)		> 100 µM (inactive)	37.8 µM (inactive)	28.8 µM (inactive)
Nn1c(SCC(=O)O)nc2ccccc2c1=O	> 100 µM (inactive)	> 100 µM (inactive)	> 100 µM (inactive)	> 100 µM (inactive)	> 100 µM (inactive)	> 100 µM (inactive)	> 100 µM (inactive)	> 100 µM (inactive)	> 100 µM (inactive)	> 100 µM (inactive)	> 100 µM (inactive)	> 100 µM (inactive)	> 100 µM (inactive)	> 100 µM (inactive)	> 100 µM (inactive)		> 100 µM (inactive)	> 100 µM (inactive)	> 100 µM (inactive)	> 100 µM (inactive)
C1=C2SSC3=CC=C(SSc4ccc(s4)SSC4=CC=C(SSC(=C1)S2)S4)S3		> 100 µM (inactive)	> 100 µM (inactive)	> 100 µM (inactive)	> 100 µM (inactive)	> 100 µM (inactive)	> 100 µM (inactive)	> 100 µM (inactive)	> 100 µM (inactive)	> 100 µM (inactive)	> 100 µM (inactive)	> 100 µM (inactive)	> 100 µM (inactive)	> 100 µM (inactive)	> 100 µM (inactive)	> 100 µM (inactive)	> 100 µM (inactive)	> 100 µM (inactive)	> 100 µM (inactive)	> 100 µM (inactive)
